Legend:
Assay type in all cases: cell-based
Bacillus Cereus = test: agar plate disc-diffusion, inhibition zone; settings: Gram positive; for zone of inhibition at 10000 ppm: A = concentration of comp. = 10,000 ppm; for zone of inhibition at 30000 ppm: B = concentration of comp. = 30000 ppm; for zone of inhibition at 50000 ppm: C = concentration of comp. = 50,000 ppm
Protocol: (§1) The antimicrobial properties of the synthesized compound was studied by the method of agar plate disc-diffusion. Sterilized filter papers (6 mm in diameter) were wetted with 10 μL of a solution of 1-cyclopropyl-6-fluoro-4-oxo-7-(4-((2-thioxobenzo[d]thiazol-3(2H)-yl)methyl)piperazin-1-yl)-1,4-dihydroquinoline-3-carboxylic acid (4) to be tested, containing 10 mg/mL in DMSO and the discs were allowed to air dry. The discs were then placed onto the surface of agar plates (nutrient agar for bacteria) seeded with the test organism. Each plate contained 15 mL of the agar medium, previously seeded with 0.2 mL of the broth culture of each organism pregrown for 18 h. The inhibition zones were measured in […]. Discs impregnated with DMSO were used as a control, and its inhibition zone was subtracted from the tested compound actual inhibition zone.

Pseudomonas aeruginosa = test: agar plate disc-diffusion, inhibition zone; settings: Gram negative; for zone of inhibition at 10000 ppm: A = concentration of comp. = 10,000 ppm; for zone of inhibition at 30000 ppm: B = concentration of comp. = 30000 ppm; for zone of inhibition at 50000 ppm: C = concentration of comp. = 50,000 ppm
Protocol: as §1

Staphylococcus aureus = test: agar plate disc-diffusion, inhibition zone; settings: Gram positive; for zone of inhibition at 10000 ppm: A = concentration of comp. = 10,000 ppm; for zone of inhibition at 30000 ppm: B = concentration of comp. = 30000 ppm; for zone of inhibition at 50000 ppm: C = concentration of comp. = 50,000 ppm
Protocol: as §1

Escherichia coli = test: agar plate disc-diffusion, inhibition zone; settings: Gram negative; for zone of inhibition at 10000 ppm: A = concentration of comp. = 10,000 ppm; for zone of inhibition at 30000 ppm: B = concentration of comp. = 30000 ppm; for zone of inhibition at 50000 ppm: C = concentration of comp. = 50,000 ppm
Protocol: as §1

[1] = tested on: gram positive and gram-negative bacterial strains; test: antibacterial activity screen, overall statement; settings: Bacillus cereus, Staphylococcus aureus, Pseudomonas aeruginosa and Escherichia coli
Protocol: as §1

Row | SMILES | zone of inhibition at 10000 ppm (Bacillus Cereus) | zone of inhibition at 30000 ppm (Bacillus Cereus) | zone of inhibition at 50000 ppm (Bacillus Cereus) | zone of inhibition at 10000 ppm (Pseudomonas aeruginosa) | zone of inhibition at 30000 ppm (Pseudomonas aeruginosa) | zone of inhibition at 50000 ppm (Pseudomonas aeruginosa) | zone of inhibition at 10000 ppm (Staphylococcus aureus) | zone of inhibition at 30000 ppm (Staphylococcus aureus) | zone of inhibition at 50000 ppm (Staphylococcus aureus) | zone of inhibition at 10000 ppm (Escherichia coli) | zone of inhibition at 30000 ppm (Escherichia coli) | zone of inhibition at 50000 ppm (Escherichia coli) | antibacterial activities (in words) [1]
1 | O=C(O)c1cn(C2CC2)c2cc(N3CCN(Cn4c(=S)sc5ccccc54)CC3)c(F)cc2c1=O [Compound 4, 1-cyclopropyl-6-fluoro-4-oxo-7-(4-((2-thioxobenzo[d]thiazol-3(2H)-yl)methyl)piperazin-1-yl)-1,4-dihydroquinoline-3-carboxylic acid] | 35 mm | 39 mm | 44 mm | 24 mm | 31 mm | 39 mm | 10 mm | 17 mm | 22 mm | 39 mm | 44 mm | 49 mm | good antibacterial activities
2 | O=C(O)c1cn(C2CC2)c2cc(N3CCNCC3)c(F)cc2c1=O [Cip., ciprofloxacin, reference compound] | 29 mm | 30 mm | 42 mm | 29 mm | 30 mm | 53 mm | 43 mm | 44 mm | 53 mm | 30 mm | 39 mm | 60 mm | 

Source: US11884658B1, “1-cyclopropyl-6-fluoro-4-oxo-7-(4-((2-thioxobenzo[d]thiazol-3(2H)-yl)methyl)piperazin-1-yl)-1,4-dihydroquinoline-3-carboxylic acid as an antimicrobial compound” (KING FAISAL UNIVERSITY, priority 2023, dated 2024)
